Data: patent US20210047192A1, “DELAYED RELEASE FORMULATION OF NITRIFICATION INHIBITORS” (BASF SE, priority 2018, published 2021)

Key:
sandy soil = test: Nitrogen retention in field trials (NH4-nitrogen content of soil); type: in vivo; conditions: incorporation depth 0 cm
Experimental: An area of sandy soil, previously untreated with fertilizer or other agricultural products near the field station Limburgerh of, was treated as follows. Drainage pipes of 20 cm in length and 12 cm diameter were inserted 10 cm deep into the soil. A treatment as indicated in a line of Table 10 was added on top of the soil under which a pipe was buried. At the beginning of the experiment and after three weeks, the pipes were dug out of the soil with its content, the content emptied into a bag and frozen on site. The soil was then analyzed for NH4-nitrogen content in the laboratory according to the following method: Samples were defrosted for 24 h, then sieved through a 5-6 mm mesh sieve. 200 g of the thus homogenized samples were put into 1 L plastic bottles and 600 mL of a […] solution (1% (w/w) K2SO4 in water) were added. The samples were then shaken for 2 h end over end. The solution was filtered to remove the soil and 50 mL of the filtrate retained for analysis in a Continuous Flow Analyzer for NH4-nitrogen content.

[1] = Volatility measurement at 35° C. (weight loss of beakers in oil bath); type: physicochemical; conditions: relative to the initial weight, after 23 hours at 35° C.
Experimental: Five beakers B1-B5 were prepared containing samples as specified in Table 2
(§1) All 5 beakers were mounted in an oil bath such that half of the beakers were immersed. The temperature of the oil bath was set to 35° C. During the heating process, the beakers were periodically taken out of the oil bath, dried, and weighted. The total mass of the beaker with samples was noted and compared to the initial weight of the beakers with samples. The weight loss attributed to Compound A was calculated from the total weight loss of the sample by taking the loading of the respective sample with Compound A into account. A comparison of the weight loss of Compound A, and the whole sample weight loss in the all 5 beakers after 23 hours at 35° C. was shown in the Table 3.

[2] = Volatility measurement at 60° C. (weight loss after 32 hours); type: physicochemical; conditions: relative to the initial weight, after 32 hours at 60° C.
Experimental: as §1
Five beakers B1-B5 were prepared and treated as described in Example-1 with the differences that the oil bath was set to 60° C. and that the weight loss was recorded after 32 hours.

[3] = Volatility measurement at 100° C.; type: physicochemical; conditions: relative to the initial weight, after hours at 100° C.
Experimental: as §1
Five beakers B1-B5 were prepared and treated as described in Example-1 with the differences that the oil bath was set to 100° C. and that the weight loss was recorded after […].

[4] = Volatility measurement at 60° C. with different loading for 24 or 72 hours (beakers B11-B15); type: physicochemical; conditions: relative to the initial weight
Experimental: Five beakers B11-B15 were prepared containing samples as specified in Table 8.
All 5 beakers B11-B15 were mounted in an oil bath such that half of the beakers were immersed. The temperature of the oil bath was set to 60′C. During the heating process, the beakers were periodically taken out of the oil bath, dried, and weighted. The total mass of the beaker with samples was noted and compared to the initial weight of the beakers with samples. The weight loss attributed to Compound A was calculated from the total weight loss of the sample by taking the loading of the respective sample with Compound A into account. A comparison of the weight loss of Compound A, and the whole sample weight loss in the all 5 beakers after 24 and 72 hours at 60° C. was shown in the Table 9.

Total sample weight loss [1] | Weight loss of Compound A [1] | Total sample weight loss [2] | Weight loss of Compound A [2] | Total sample weight loss [3] | Weight loss of Compound A [3] | Total sample weight loss after 24 hours ([4]; 24 hours) | Weight loss of Compound A after 24 hours ([4]; 24 hours) | Total sample weight loss after 72 hours ([4]; 72 hours) | Weight loss of Compound A after 72 hours ([4]; 72 hours) | SMILES | NH4-nitrogen (sandy soil; 3 weeks after application) | NH4-nitrogen (sandy soil; at time of application)
– | – | – | – | – | – | – | – | – | – | N.N.O=S(=O)(O)O [Ammonium Sulfate] | 8 kg/ha | 75 kg/ha
4.22% | 4.22% | 37.97% | 37.97% | 68.82% | 68.82% | 9.02% | 9.02% | 26.99% | 26.99% | C#CCOCc1ccc(Cl)cc1 [Compound A, 1-chloro-4-(prop-2-ynoxymethyl)benzene] | – | –
